How the values were obtained:
M2R [1] = conditions: 1 mM ligand, buffer exchange without ligand; cited from earlier work
M2R [2] = target: T1, M2R (Homo sapiens, UniProt P08172); experiment: NanoBiT G-protein dissociation assay (Gi activation); assay type: cell-based; conditions: HEK293A cells expressing M2R and NanoBiT-Gi1; for Gi-protein activity relative to ACh (in words): Fig. 3a
T1 construct: expressed in transfected cells; host or cells: HEK293A
T1 sequence (P08172 1-466): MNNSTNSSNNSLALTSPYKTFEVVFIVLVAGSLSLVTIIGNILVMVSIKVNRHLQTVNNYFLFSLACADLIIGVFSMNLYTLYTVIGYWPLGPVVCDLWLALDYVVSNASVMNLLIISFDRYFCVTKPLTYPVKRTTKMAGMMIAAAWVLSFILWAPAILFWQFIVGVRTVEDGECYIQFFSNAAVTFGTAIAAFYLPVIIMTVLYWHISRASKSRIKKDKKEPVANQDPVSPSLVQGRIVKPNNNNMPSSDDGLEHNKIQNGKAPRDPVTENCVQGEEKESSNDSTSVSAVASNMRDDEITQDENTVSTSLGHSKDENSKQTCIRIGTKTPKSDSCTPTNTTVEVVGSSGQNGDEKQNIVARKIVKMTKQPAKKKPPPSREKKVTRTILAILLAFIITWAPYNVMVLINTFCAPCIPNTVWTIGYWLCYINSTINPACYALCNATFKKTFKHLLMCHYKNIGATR
Procedure: M2R-induced G-protein dissociation was measured by a NanoBiT-G-protein dissociation assay, in which the interaction between a Gα subunit and a Gβγ subunit was monitored by the NanoBiT system (Promega). Specifically, a NanoBiT-Gi1 protein consisting of Gαi1 subunit fused with a large fragment (LgBiT) at the α-helical domain and an N-terminally small fragment (SmBiT)-fused Gγ2 subunit with a C68S mutation was expressed along with untagged Gβ1 subunit and M2R. HEK293A cells were seeded in a 10-cm culture dish at a concentration of 2 × 10^5 cells mL^−1 (10 mL per well in DMEM (Nissui) supplemented with 10% fetal bovine serum (Gibco), glutamine, penicillin, and streptomycin), 1 day before transfection. Transfection solution was prepared by combining 25 µL (per dish hereafter) of polyethylenimine (PEI) Max solution (1 mg mL^−1; Polysciences), 1 mL of Opti-MEM (Thermo Fisher Scientific), and a plasmid mixture consisting of 1 µg M2R (or an empty plasmid for mock transfection), 500 ng LgBiT-containing Gαi1 subunit, 2.5 µg Gβ1 subunit, and 2.5 µg SmBiT-fused Gγ2 subunit (C68S). After an incubation for 1 day, the transfected cells were harvested with 0.5 mM EDTA-containing Dulbecco’s PBS, centrifuged and suspended in 10 mL of HBSS containing 0.01% bovine serum albumin (BSA; fatty acid–free grade; SERVA) and 5 mM HEPES (pH 7.4) (assay buffer). The cell suspension was dispensed in a white 96-well plate at a volume of 80 µL per well and loaded with 20 µL of 50 µM coelenterazine (Carbosynth) diluted in the assay buffer. After a 2 h incubation at room temperature, the plate was measured for baseline luminescence (Spectramax L, Molecular Devices) and a titrated test ligand (20 µL; […] of final concentrations) was manually added. The plate was immediately read at room temperature for the following 5 min as a kinetics mode, at measurement intervals of 20 s. The luminescence counts over 3–5 min after ligand addition were averaged and normalized to the initial count. The fold-change values were further normalized to that of vehicle-treated samples and used to plot the G-protein dissociation response. Using the Prism 8 software (GraphPad Prism), the G-protein dissociation signals were fitted to a four-parameter sigmoidal concentration-response curve.

M2R [3] = experiment: Ligand binding-induced difference ATR-FTIR spectroscopy, amide-I band; parameters: species or system human; conditions: lipid-reconstituted M2R-BRIL, 293 K; for population of active-like M2R conformation from amide-I band ratio (in words): 1 mM ligand; for ligand efficacy class suggested by amide-I spectral features: H2O, compared with Scop- and NMS-bound spectra
Procedure: Red and purple lines correspond to ACh- and Atro-bound spectra, respectively. To quantitatively examine the change in the amide-I band specific to ligand efficacy, the ratio between the band strength of (2)1656 (+)/(1)1666 (−) cm^−1 of ACh-bound spectra at high frequency and (2)1656 (+)/(3)1640 (−) cm^−1 of ACh-bound spectra at low frequency is calculated and reported as efficacy rate. b Ligand-dependent spectral changes of amide-I band originating from C=O stretch of α-helix in 1700–1620 cm^−1 region. Red, orange, and purple lines correspond to agonist-, partial agonist-, and antagonist-bound spectra, respectively. […] The error values were calculated from three replicate experiments. Cyan dotted line indicates the value = 1.
The ratio of the amide-I band was assumed to be the ligand efficacy (Fig. 2b, c). Strikingly, all agonists have an amide-I band ratio >1. The amide-I band ratio for both the partial agonists and the antagonists were <1, with the exception of Xano.
A 2 μL aliquot of the lipid-reconstituted M2R suspensions was placed on the surface of a silicon ATR crystal (three internal total reflection, Smith Detection, UK. After it was dried in a gently natural drying, the sample was rehydrated with a solvent containing 200 mM phosphate (pH 7.5) buffer with 140 mM NaCl, 3 mM MgCl2 at a flow rate of 0.6 mL min^−1 through a flow cell, of which the temperature was maintained at 20 °C by circulating water. ATR-FTIR spectra were first recorded at 2 cm^−1 resolution, using an FTIR spectrometer (Bio-rad FTS7000, Agilent, CA, USA) equipped with a liquid nitrogen-cooled MCT detector (an average of 768 interferograms). After the FTIR spectrum had been recorded in the second buffer with 1 mM ligand, the difference FTIR spectrum was calculated by subtracting the data obtained for the first and second buffer. The cycling procedure was repeated two to seven times, and the difference spectra were calculated as the average of the presence minus absence spectra of ligand. The spectral contributions of the unbound ligand, the protein/lipid shrinkage, and water/buffer components were corrected (Supplementary Figure 2–5).

M2R [4] = experiment: Ligand dissociation kinetics from time-course ATR-FTIR (amide-I band); assay type: binding, human; conditions: 1 mM ligand washed out by buffer exchange, 0.6 mL min-1, 20 °C; single exponential fit
Procedure: Each ligand (1 mM concentration) is added at 30 min time point and is washed out at 90 min time point by exchanging to the buffer without ligand at a flow rate of 0.6 mL min^−1 through a flow cell, of which the temperature is maintained at 20 °C by circulating water. […] Ligand dissociation phase is highlighted by light blue. b Time trace of the integrated absorbance signal at dissociation phase in the amide-I band for each ligand. […] Dotted lines represent the fitting curve obtained by single exponential function.
After the FTIR spectrum had been recorded in the second buffer with 1 mM ligand, the difference FTIR spectrum was calculated by subtracting the data obtained for the first and second buffer. The cycling procedure was repeated two to seven times, and the difference spectra were calculated as the average of the presence minus absence spectra of ligand. The spectral contributions of the unbound ligand, the protein/lipid shrinkage, and water/buffer components were corrected (Supplementary Figure 2–5).
All functional and statistical data were analyzed using GraphPad Prism v.9.0 (Graphpad Software) and shown as mean ± s.e.m. from at least three independent experiments. Dissociation kinetics curves were evaluated with a single exponential function.

M2R [5] = system: M2R; parameters: method as in PMID 23441648; conditions: super agonist of M2R; cited from earlier work

Question: For `CC(=O)OCC[N+](C)(C)C` [ACh, acetylcholine], which “amide-I band intensity during dissociation phase after buffer exchange” value (M2R [1]) is on record?
Answer: decreased gradually

Question: For `CN1[C@@H]2CC[C@H]1C[C@@H](OC(=O)C(CO)c1ccccc1)C2` (some centres unmarked) [Atro, atropine], which “amide-I band intensity during dissociation phase after buffer exchange” value (M2R [1]) is on record?
Answer: did not decrease

Question: For `C[N+](C)(C)CCOC(N)=O` [Carb, Carbamylcholine], which “Gi-protein activity relative to ACh (in words)” value (M2R [2]) is on record?
Answer: almost identical Gi-protein activity as ACh

Question: What does the source list for `CC(C)[N+]1(C)[C@@H]2CC[C@H]1C[C@@H](OC(=O)C(CO)c1ccccc1)C2` (some centres unmarked) [Ipra, Ipratropium]?
Answer: Gi-dissociation activity (Emax normalized to ACh) (M2R [2]; Span normalized to ACh): 6.3 % of ACh; population of active-like M2R conformation from amide-I band ratio (in words) (M2R [3]): higher ratio of active conformation than Atro and Scop

Question: For `C[N+](C)(C)CC#CCOC1=NOCC1` [Ixo, Iperoxo], which “Gi-protein activity relative to ACh (in words)” value (M2R [2]) is on record?
Answer: higher G-protein activation than ACh

Question: What about the “dissociation kinetics (koff) from M2R (in words)” value (M2R [4]) of the same molecule?
Answer: slowest dissociation kinetics

Question: And the “potency relative to ACh” value (M2R [5])?
Answer: 100 fold

Question: Which results are given for `C[N+](C)(C)CC#CCOC(=O)Nc1cccc(Cl)c1` [McN, McN-A-343]?
Answer: Gi-protein activity relative to ACh (in words) (M2R [2]): decreased Gi signalling relative to ACh; dissociation kinetics (koff) from M2R (in words) (M2R [4]): fast dissociation kinetics

Question: With `CC(=O)OC(C)C[N+](C)(C)C` (centres unmarked) [Meta, Metacholine] as the molecule, how does the “Gi-protein activity relative to ACh (in words)” value (M2R [2]) read?
Answer: almost identical Gi-protein activity as ACh

Question: For `CCCC[N+]1(C)C2CC(OC(=O)C(CO)c3ccccc3)CC1C1OC12` (centres unmarked) [NBS, N-butylscopolamine], which “ligand efficacy class suggested by amide-I spectral features” value (M2R [3]) is on record?
Answer: antagonist

Question: For `CC[N+]1(C)[C@@H]2CC(OC(=O)[C@H](CO)c3ccccc3)C[C@H]1[C@@H]1O[C@@H]12` (some centres unmarked) [Oxitro, Oxitropium], which “ligand efficacy class suggested by amide-I spectral features” value (M2R [3]) is on record?
Answer: inverse agonist

Question: With `CN1[C@@H]2C[C@@H](OC(=O)[C@H](CO)c3ccccc3)C[C@H]1[C@@H]1O[C@@H]12` [Scop, Scopolamine] as the molecule, how does the “Gi-protein activity relative to ACh (in words)” value (M2R [2]) read?
Answer: undetectable

Question: For `CCCCCCOc1nsnc1C1=CCCN(C)C1` [Xano, Xanomeline], which “Gi-protein activity relative to ACh (in words)” value (M2R [2]) is on record?
Answer: decreased Gi signalling relative to ACh

Question: And the “population of active-like M2R conformation from amide-I band ratio (in words)” value (M2R [3])?
Answer: higher population of active-like M2R conformation

Question: What about the “dissociation kinetics (koff) from M2R (in words)” value (M2R [4]) of the same molecule?
Answer: extremely slow

Source: PMC8635417 (Communications Biology, 2021)
